Structures can show the parent of a compound that is named as a salt.
Assays:
FGFR2 [1] = target: T1, FGFR2 (Homo sapiens, UniProt P21802); assay: FGFR2 Kinase Protocol - Condition 1 (Reaction Biology HotSpot radiometric kinase assay); format: biochemical; conditions: 20-min incubation of compound with kinase before ATP; poly[Glu:Tyr] (4:1) 0.2 mg/ml; ATP 100 micromolar; 2 hr room temperature
Experimental: Example 1: FGFR2 Kinase Protocol—Condition 1
The Reaction Biology HotSpot assay platform (http://www.reactionbiology.com) was used to measure kinase/inhibitor interactions as described previously (Anastassiadis et al., 2011). In brief, for each reaction, kinase and substrate were mixed in a buffer containing 20 mM HEPES (pH 7.5), 10 mM MgCl2, 1 mM EGTA, 0.02% Brij35, 0.02 mg/mL BSA, 0.1 mM Na3VO4, 2 mM DTT, and 1% DMSO. All compounds were in powder form and freshly solubilized in DMSO for assays. Compounds were then added to each reaction mixture via acoustic dispense using an ECHO 550 nanoliter dispenser. For Human FGFR2 wildtype testing, a peptide substrate, poly[Glu:Tyr] (4:1) was used to promote the reaction at a concentration of 0.2 mg/ml. For Human FGFR2 (V564F) testing, a peptide substrate, poly[Glu:Tyr] (4:1) was used to promote the reaction at a concentration of 0.2 mg/ml. ATP concentration for all assays was maintained at 100 micromolar. Compounds were tested in 10-dose IC50 mode with a 3-fold serial dilution. After a 20-min incubation, ATP (Sigma-Aldrich, St. Louis, MO 63178) and [g33P] ATP (specific activity 10 microCi/microliter) purchased at PerkinElmer (Boston, MA, 02118 Cat #BLU 003H250UC) were added at a final total concentration of […]. Reactions were carried out at room temperature for 2 hr and spotted onto P81 ion exchange cellulose chromatography paper (Reaction Biology). Filter paper was washed in 0.75% phosphoric acid to remove unincorporated ATP. The percent remaining kinase activity relative to a vehicle-containing (DMSO) kinase reaction was calculated for each kinase/inhibitor pair. IC50 values were calculated using Dotmatics Knowledge Solutions Studies curve fitting (Dotmatics, Bishops Stortford, UK, CM23).

FGFR2 [2] = target: T1, FGFR2; assay: FGFR2 Kinase Protocol - Condition 2 (Reaction Biology HotSpot radiometric kinase assay, no preincubation); format: biochemical; conditions: poly[Glu:Tyr] (4:1) 0.2 mg/ml, ATP 100 microM, 2 hr room temperature
Outline: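 Ten-point, 3-fold compound dilutions were tested against wildtype or V564F FGFR2 with 100 µM ATP (33P-labelled), no preincubation, and 0.2 mg/ml poly[Glu:Tyr] (4:1) substrate. After 2 hr at room temperature, incorporation was read on P81 filter paper; IC50 fitted from activity remaining relative to vehicle.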

T1 sequence (P21802 22-821): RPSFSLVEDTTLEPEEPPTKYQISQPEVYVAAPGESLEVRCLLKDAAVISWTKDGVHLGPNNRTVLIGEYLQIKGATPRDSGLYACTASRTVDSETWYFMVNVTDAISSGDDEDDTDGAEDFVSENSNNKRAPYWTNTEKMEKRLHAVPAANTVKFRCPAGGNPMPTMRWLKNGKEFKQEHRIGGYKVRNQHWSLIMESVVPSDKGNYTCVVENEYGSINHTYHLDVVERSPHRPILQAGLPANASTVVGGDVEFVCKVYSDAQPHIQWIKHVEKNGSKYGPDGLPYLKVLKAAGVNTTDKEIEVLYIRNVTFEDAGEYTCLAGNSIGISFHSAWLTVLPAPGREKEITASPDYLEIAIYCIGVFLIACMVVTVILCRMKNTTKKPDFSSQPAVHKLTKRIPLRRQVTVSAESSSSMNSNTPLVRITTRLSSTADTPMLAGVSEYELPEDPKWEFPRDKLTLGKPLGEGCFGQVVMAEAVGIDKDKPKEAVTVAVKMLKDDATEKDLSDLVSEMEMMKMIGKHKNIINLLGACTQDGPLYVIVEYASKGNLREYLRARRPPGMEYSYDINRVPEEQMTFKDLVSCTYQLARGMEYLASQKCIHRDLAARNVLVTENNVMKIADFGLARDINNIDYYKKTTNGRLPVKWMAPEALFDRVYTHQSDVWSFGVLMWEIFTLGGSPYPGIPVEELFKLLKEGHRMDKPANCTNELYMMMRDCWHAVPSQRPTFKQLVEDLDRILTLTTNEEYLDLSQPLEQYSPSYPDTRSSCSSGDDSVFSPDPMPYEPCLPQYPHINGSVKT

Compound | IC50 (FGFR2 [1]) [nM] | IC50 (FGFR2 [2]) [nM]
C=CC(=O)N1C[C@@H](n2nc(C#Cc3cc4ncn(CC)c4cc3Cl)c3c(N)nccc32)C[C@@H]1C [Example 169, 1-((2S,4S)-4-(4-amino-3-((6-chloro-1-ethyl-1H-benzo[d]imidazol-5-yl)ethynyl)-1H-pyrazolo[4,3-c]pyridin-1-yl)-2-methylpyrrolidin-1-yl)prop-2-en-1-one] |  | ≤ 100
C=CC(=O)N1C[C@@H](n2nc(C#Cc3ccc4nn(CC)cc4c3)c3c(N)nccc32)C[C@@H]1COC [Example 38, 1-[(2R,4S)-4-[4-amino-3-[2-(2-ethylindazol-5-yl)ethynyl]pyrazolo[4,3-c]pyridin-1-yl]-2-(methoxymethyl)pyrrolidin-1-yl]prop-2-en-1-one] |  | 1000 to 10000
C=CC(=O)N1C[C@@H](n2nc(C#Cc3ccc4c(c3)ncn4C)c3c(N)nccc32)C[C@@H]1COC(F)(F)F [Example 58, 1-((2R,4S)-4-(4-Amino-3-((1-methyl-1H-benzo[d]imidazol-5-yl)ethynyl)-1H-pyrazolo[4,3-c]pyridin-1-yl)-2-((trifluoromethoxy)methyl)pyrrolidin-1-yl)prop-2-en-1-one formate] |  | ≤ 100
C=CC(=O)N1C[C@@H](n2nc(C#Cc3cc4ncn(CC)c4c(F)c3Cl)c3c(N)ncnc32)C[C@@H]1CC#N [Example 173, 2-[(2R,4S)-4-{4-Amino-3-[2-(6-chloro-1-ethyl-7-fluoro-1,3-benzodiazol-5-yl)ethynyl]pyrazolo[3,4-d]pyrimidin-1-yl}-1-(prop-2-enoyl)pyrrolidin-2-yl]acetonitrile] |  | ≤ 100
C=CC(=O)N1C[C@@H](n2nc(C#Cc3ccc4c(c3)nc(C)n4CC)c3c(N)nccc32)C[C@@H]1CC#N [Example 53, 2-[(2R,4S)-4-[4-Amino-3-[2-(1-ethyl-2-methyl-1,3-benzodiazol-5-yl)ethynyl]pyrazolo[4,3-c]pyridin-1-yl]-1-(prop-2-enoyl)pyrrolidin-2-yl]acetonitrile; formic acid] |  | ≤ 100
C=CC(=O)N1C[C@@H](n2nc(C#Cc3ccc4nn(C)cc4c3)c3c(N)nccc32)C[C@@H]1COC [Example 36, 1-[(2R,4S)-4-[4-amino-3-[2-(2-methylindazol-5-yl)ethynyl]pyrazolo[4,3-c]pyridin-1-yl]-2-(methoxymethyl)pyrrolidin-1-yl]prop-2-en-1-one] |  | 100 to 1000
C=CC(=O)N1CC[C@H](n2nc(C#Cc3cc4ncn(CC)c4cc3F)c3c(N)nccc32)C1 [Example 150, 1-[(3S)-3-{4-Amino-3-[2-(1-ethyl-6-fluoro-1,3-benzodiazol-5-yl)ethynyl]pyrazolo[4,3-c]pyridin-1-yl}pyrrolidin-1-yl]prop-2-en-1-one] |  | ≤ 100
C=CC(=O)N1CC[C@H](n2nc(C#Cc3cc4ncn(CC)c4cc3Cl)c3c(N)ncnc32)C1 [Example 132, 1-[(3S)-3-{4-Amino-3-[2-(6-chloro-1-ethyl-1,3-benzodiazol-5-yl)ethynyl]pyrazolo[3,4-d]pyrimidin-1-yl}pyrrolidin-1-yl]prop-2-en-1-one] |  | ≤ 100
C=CC(=O)N1C[C@@H](n2nc(C#Cc3c(F)cc4nn(C)cc4c3F)c3c(N)ncnc32)C[C@@H]1COC [Example 44, 1-((2R,4S)-4-(4-amino-3-((4,6-difluoro-2-methyl-2H-indazol-5-yl)ethynyl)-1H-pyrazolo[3,4-d]pyrimidin-1-yl)-2-(methoxymethyl)pyrrolidin-1-yl)prop-2-en-1-one] |  | ≤ 100

The remaining lines, values ahead:

IC50 (FGFR2 [1]) [nM] | IC50 (FGFR2 [2]) [nM] | Compound
≤ 100 |  | C=CC(=O)N1C[C@@H](n2nc(C#Cc3ccc4[nH]c(C)nc4c3)c3c(N)nccc32)C[C@@H]1COC [Example 22, 1-((2R,4S)-4-(4-amino-3-((2-methyl-1H-benzo[d]imidazol-5-yl)ethynyl)-1H-pyrazolo[4,3-c]pyridin-1-yl)-2-(methoxymethyl)pyrrolidin-1-yl)prop-2-en-1-one]
 | ≤ 100 | C=CC(=O)N1C[C@@H](n2nc(C#Cc3cc4ncn(C)c4c(F)c3F)c3c(N)ncnc32)C[C@@H]1COC [Example 120, 1-((2R,4S)-4-(4-Amino-3-((6,7-difluoro-1-methyl-1H-benzo[d]imidazol-5-yl)ethynyl)-1H-pyrazolo[3,4-d]pyrimidin-1-yl)-2-(methoxymethyl)pyrrolidin-1-yl)prop-2-en-1-one]
 | ≤ 100 | C=CC(=O)N1CC[C@H](n2nc(C#Cc3cc4ncn(CC)c4c(F)c3F)c3c(N)nccc32)C1 [Example 155, 1-[(3S)-3-{4-Amino-3-[2-(1-ethyl-6,7-difluoro-1,3-benzodiazol-5-yl)ethynyl]pyrazolo[4,3-c]pyridin-1-yl}pyrrolidin-1-yl]prop-2-en-1-one]
 | ≤ 100 | C=CC(=O)N1C[C@@H](n2nc(C#Cc3cc4ncn(C)c4cc3Cl)c3c(N)nccc32)C[C@@H]1C(F)F [Example 172, 1-((2R,4S)-4-(4-amino-3-((6-chloro-1-methyl-1H-benzo[d]imidazol-5-yl)ethynyl)-1H-pyrazolo[4,3-c]pyridin-1-yl)-2-(difluoromethyl)pyrrolidin-1-yl)prop-2-en-1-one]
 | ≤ 100 | C=CC(=O)N1C[C@@H](n2cc(C#Cc3c(Cl)cc4c(ncn4CC)c3F)c3c(N)ncnc32)C[C@@H]1COC [Example 118, 1-1-[(2R,4S)-4-[4-Amino-5-[2-(6-chloro-1-ethyl-4-fluoro-1,3-benzodiazol-5-yl)ethynyl]pyrrolo[2,3-d]pyrimidin-7-yl]-2-(methoxymethyl)pyrrolidin-1-yl]prop-2-en-1-one]
 | ≤ 100 | C=CC(=O)N1CC[C@H](n2nc(C#Cc3cc4ncn(C)c4c(F)c3Cl)c3c(N)ncnc32)C1 [Example 145, (S)-1-(3-(4-Amino-3-((6-chloro-7-fluoro-1-methyl-1H-benzo[d]imidazol-5-yl)ethynyl)-1H-pyrazolo[3,4-d]pyrimidin-1-yl)pyrrolidin-1-yl)prop-2-en-1-one]
 | ≤ 100 | C=CC(=O)N1C[C@@H](n2nc(C#Cc3cc4ncn(C)c4cc3F)c3c(N)nccc32)C[C@@H]1C [Example 165, 1-((2S,4S)-4-(4-amino-3-((6-fluoro-1-methyl-1H-benzo[d]imidazol-5-yl)ethynyl)-1H-pyrazolo[4,3-c]pyridin-1-yl)-2-methylpyrrolidin-1-yl)prop-2-en-1-one]
 | ≤ 100 | C=CC(=O)N1C[C@@H](n2cc(C#Cc3cc4nc(C)[nH]c4cc3Cl)c3c(N)ncnc32)C[C@@H]1COC [Example 89, 1-[(2R,4S)-4-[4-Amino-5-[2-(6-chloro-2-methyl-1H-1,3-benzodiazol-5-yl)ethynyl]pyrrolo[2,3-d]pyrimidin-7-yl]-2-(methoxymethyl)pyrrolidin-1-yl]prop-2-en-1-one]
 | ≤ 100 | C=CC(=O)N1C[C@@H](n2nc(C#Cc3cc4ncn(C)c4cc3F)c3c(N)nccc32)C[C@@H]1COC [Example 74, 1-[(2R,4S)-4-[4-Amino-3-[2-(6-fluoro-1-methyl-1,3-benzodiazol-5-yl)ethynyl]pyrazolo[4,3-c]pyridin-1-yl]-2-(methoxymethyl)pyrrolidin-1-yl]prop-2-en-1-one]
 | ≤ 100 | C=CC(=O)N1C[C@@H](n2nc(C#Cc3ccc4c(cnn4C)c3)c3c(N)ncnc32)C[C@@H]1COC [Example 40, 1-((2R,4S)-4-(4-amino-3-((1-methyl-1H-indazol-5-yl)ethynyl)-1H-pyrazolo[3,4-d]pyrimidin-1-yl)-2-(methoxymethyl)pyrrolidin-1-yl)prop-2-en-1-one]
 | ≤ 100 | C=CC(=O)N1C[C@@H](n2nc(C#Cc3ccc4c(c3)nc(C)n4CC)c3c(N)ncnc32)C[C@@H]1CC#N [Example 52, 2-((2R,4S)-1-acryloyl-4-(4-amino-3-((1-ethyl-2-methyl-1H-benzo[d]imidazol-5-yl)ethynyl)-1H-pyrazolo[3,4-d]pyrimidin-1-yl)pyrrolidin-2-yl)acetonitrile]
 | ≤ 100 | C=CC(=O)N1C[C@@H](n2nc(C#Cc3c(F)cc4nc(C)[nH]c4c3F)c3c(N)nccc32)C[C@@H]1COC [Example 95, 1-[(2R,4S)-4-[4-Amino-3-[2-(4,6-difluoro-2-methyl-1H-1,3-benzodiazol-5-yl)ethynyl]pyrazolo[4,3-c]pyridin-1-yl]-2-(methoxymethyl)pyrrolidin-1-yl]prop-2-en-1-one]
 | ≤ 100 | C=CC(=O)N1C[C@@H](n2nc(C#Cc3ccc4ocnc4c3)c3c(N)ncnc32)C[C@@H]1COC [Example 115, 1-[(2R,4S)-4-[4-Amino-3-[2-(1,3-benzoxazol-5-yl)ethynyl]pyrazolo[3,4-d]pyrimidin-1-yl]-2-(methoxymethyl)pyrrolidin-1-yl]prop-2-en-1-one]
